Species: Rattus norvegicus
Test: DrugMatrix - Regimen: Daily Repeat
Assay type: toxicity, organism-based, Sprague-Dawley
Set-up: regimen Daily Repeat, gender Male, age 6-8 weeks
Conditions: in vivo, sc, route subcutaneous, […]; for ABSOLUTE BASOPHIL / ABSOLUTE EOSINOPHIL / ABSOLUTE LYMPHOCYTE / ABSOLUTE MONOCYTE / ABSOLUTE SEGMENTED NEUTROPHIL / BASOPHIL / EOSINOPHIL / ERYTHROCYTE COUNT / HEMATOCRIT / HEMOGLOBIN / LEUKOCYTE COUNT / LYMPHOCYTE / MEAN CORPUSCULAR HEMOGLOBIN / MEAN CORPUSCULAR HEMOGLOBIN CONCENTRATION / MEAN CORPUSCULAR VOLUME / MONOCYTE / NEUTROPHIL / NUCLEATED RED BLOOD CELLS / PLATELET COUNT: tissue Blood; for ALANINE AMINOTRANSFERASE / ALBUMIN / ALKALINE PHOSPHATASE / ASPARTATE AMINOTRANSFERASE / BLOOD UREA NITROGEN / CARBON DIOXIDE / CHLORIDE / CHOLESTEROL / CREATINE PHOSPHOKINASE / CREATININE / GLUCOSE / LACTATE DEHYDROGENASE / LIPASE / PHOSPHORUS / POTASSIUM / SODIUM / TOTAL BILIRUBIN / TOTAL PROTEIN / URIC ACID: tissue Plasma
[1] = 56 mg/kg, 120 h, dose level High, time 5 day
[2] = 72 h, dose 3.3 mg/Kg, dose level Low, time 3 day
[3] = 120 h, dose 3.3 mg/Kg, dose level Low, time 5 day

C[C@]12CCC(=O)C=C1CC[C@@H]1[C@@H]2[C@@H](O)C[C@@]2(C)[C@H]1CC[C@]2(O)C(=O)CO [HYDROCORTISONE]
ABSOLUTE BASOPHIL [1]: 0 CELLS/uL | ABSOLUTE EOSINOPHIL [1]: 0 CELLS/uL | ABSOLUTE LYMPHOCYTE [1]: 1058 CELLS/uL | ABSOLUTE MONOCYTE [1]: 166.67 CELLS/uL | ABSOLUTE SEGMENTED NEUTROPHIL [1]: 5575.33 CELLS/uL | BASOPHIL [1]: 0% | EOSINOPHIL [1]: 0% | ERYTHROCYTE COUNT [1]: 6.58 x10E6/uL | HEMATOCRIT [1]: 40.47% | HEMOGLOBIN [1]: 15.5 G/DL | LEUKOCYTE COUNT [1]: 6.8 x10E3/uL | LYMPHOCYTE [1]: 17% | MEAN CORPUSCULAR HEMOGLOBIN [1]: 23.6 pg | MEAN CORPUSCULAR HEMOGLOBIN CONCENTRATION [1]: 38.3 G/DL | MEAN CORPUSCULAR VOLUME [1]: 61.63 fL | MONOCYTE [1]: 2.33% | NEUTROPHIL [1]: 80.67% | NUCLEATED RED BLOOD CELLS [1]: 0 /100WBC | PLATELET COUNT [1]: 1367.33 x10E3/uL | ALANINE AMINOTRANSFERASE [1]: 309 u/L | ALBUMIN [1]: 4.87 G/DL | ALKALINE PHOSPHATASE [1]: 497.33 u/L | ASPARTATE AMINOTRANSFERASE [1]: 475.33 u/L | BLOOD UREA NITROGEN [1]: 23 mg/dL | CARBON DIOXIDE [1]: 31.33 mmol/L | CHLORIDE [1]: 95 MEQ/L | CHOLESTEROL [1]: 140 mg/dL | CREATINE PHOSPHOKINASE [1]: 224.67 u/L | CREATININE [1]: 0.49 mg/dL | GLUCOSE [1]: 479 mg/dL | LACTATE DEHYDROGENASE [1]: 701 u/L | LIPASE [1]: 15 u/L | PHOSPHORUS [1]: 12.63 mg/dL | POTASSIUM [1]: 5.83 MEQ/L | SODIUM [1]: 145.23 MEQ/L | TOTAL BILIRUBIN [1]: 0.17 mg/dL | TOTAL PROTEIN [1]: 6.73 G/DL | URIC ACID [1]: 1.57 mg/dL | ABSOLUTE BASOPHIL [2]: 0 CELLS/uL | ABSOLUTE EOSINOPHIL [2]: 0 CELLS/uL | ABSOLUTE LYMPHOCYTE [2]: 9134.67 CELLS/uL | ABSOLUTE MONOCYTE [2]: 0 CELLS/uL | ABSOLUTE SEGMENTED NEUTROPHIL [2]: 898.67 CELLS/uL | BASOPHIL [2]: 0% | EOSINOPHIL [2]: 0% | ERYTHROCYTE COUNT [2]: 5.23 x10E6/uL | HEMATOCRIT [2]: 33.47% | HEMOGLOBIN [2]: 13.37 G/DL | LEUKOCYTE COUNT [2]: 10.03 x10E3/uL | LYMPHOCYTE [2]: 90.67% | MEAN CORPUSCULAR HEMOGLOBIN [2]: 25.6 pg | MEAN CORPUSCULAR HEMOGLOBIN CONCENTRATION [2]: 39.93 G/DL | MEAN CORPUSCULAR VOLUME [2]: 64.07 fL | MONOCYTE [2]: 0% | NEUTROPHIL [2]: 9.33% | NUCLEATED RED BLOOD CELLS [2]: 0 /100WBC | PLATELET COUNT [2]: 1185.33 x10E3/uL | ALANINE AMINOTRANSFERASE [2]: 42.33 u/L | ALBUMIN [2]: 4.73 G/DL | ALKALINE PHOSPHATASE [2]: 429 u/L | ASPARTATE AMINOTRANSFERASE [2]: 94.33 u/L | BLOOD UREA NITROGEN [2]: 15.67 mg/dL | CARBON DIOXIDE [2]: 32.67 mmol/L | CHLORIDE [2]: 101.33 MEQ/L | CHOLESTEROL [2]: 78.67 mg/dL | CREATINE PHOSPHOKINASE [2]: 185 u/L | CREATININE [2]: 0.23 mg/dL | GLUCOSE [2]: 137.67 mg/dL | LACTATE DEHYDROGENASE [2]: 131.33 u/L | LIPASE [2]: 9.67 u/L | PHOSPHORUS [2]: 12.3 mg/dL | POTASSIUM [2]: 6.34 MEQ/L | SODIUM [2]: 150.8 MEQ/L | TOTAL BILIRUBIN [2]: 0.3 mg/dL | TOTAL PROTEIN [2]: 6.73 G/DL | URIC ACID [2]: 0.83 mg/dL | ABSOLUTE BASOPHIL [3]: 0 CELLS/uL | ABSOLUTE EOSINOPHIL [3]: 115 CELLS/uL | ABSOLUTE LYMPHOCYTE [3]: 10473.33 CELLS/uL | ABSOLUTE MONOCYTE [3]: 38.33 CELLS/uL | ABSOLUTE SEGMENTED NEUTROPHIL [3]: 1440 CELLS/uL | BASOPHIL [3]: 0% | EOSINOPHIL [3]: 1% | ERYTHROCYTE COUNT [3]: 5.54 x10E6/uL | HEMATOCRIT [3]: 36.47% | HEMOGLOBIN [3]: 14.6 G/DL | LEUKOCYTE COUNT [3]: 12.07 x10E3/uL | LYMPHOCYTE [3]: 87% | MEAN CORPUSCULAR HEMOGLOBIN [3]: 26.37 pg | MEAN CORPUSCULAR HEMOGLOBIN CONCENTRATION [3]: 40.07 G/DL | MEAN CORPUSCULAR VOLUME [3]: 65.8 fL | MONOCYTE [3]: 0.33% | NEUTROPHIL [3]: 11.67% | NUCLEATED RED BLOOD CELLS [3]: 0 /100WBC | PLATELET COUNT [3]: 1230 x10E3/uL | ALANINE AMINOTRANSFERASE [3]: 51.67 u/L | ALBUMIN [3]: 4.73 G/DL | ALKALINE PHOSPHATASE [3]: 334.67 u/L | ASPARTATE AMINOTRANSFERASE [3]: 73 u/L | BLOOD UREA NITROGEN [3]: 15.33 mg/dL | CARBON DIOXIDE [3]: 31.33 mmol/L | CHLORIDE [3]: 104 MEQ/L | CHOLESTEROL [3]: 66 mg/dL | CREATINE PHOSPHOKINASE [3]: 123.33 u/L | CREATININE [3]: 0.18 mg/dL | GLUCOSE [3]: 160 mg/dL | LACTATE DEHYDROGENASE [3]: 97.33 u/L | LIPASE [3]: 9.33 u/L | PHOSPHORUS [3]: 14.23 mg/dL | POTASSIUM [3]: 6.63 MEQ/L | SODIUM [3]: 149.93 MEQ/L | TOTAL BILIRUBIN [3]: 0.2 mg/dL | TOTAL PROTEIN [3]: 6.63 G/DL | URIC ACID [3]: 1.7 mg/dL
